Test results: US20040037806A1, “Aldosterone blocker therapy to prevent or treat inflammation-related disorders” (Pharmacia Corporation, priority 2002, published 2004)
“Also recorded” adds a separate entry of the source.

Columns and labels:
Type in all cases: in vivo, rat
[1] = Assay B: aldosterone infusion model, heart histology, vascular inflammatory lesions and myocardial injury; details: aldosterone-infused, saline-drinking, uni-nephrectomized Sprague Dawley rats, 4 weeks; eplerenone 100 mpk p.o; 0.6% KCl in the drinking fluid
Protocol: Assay B: In Vivo Aldosterone Infusion Model
Male Sprague Dawley rats (n=39; BW=250 g)
→ Hearts were harvested and divided by half through a transverse section at the mid-ventricles: The upper half was stored into formalin. The bottom part was snap-frozen in liquid nitrogen for biochemical analysis.
Hearts were stained with hematoxylin&eosin and the collagen specific dye picro-sirius red and were analyzed for determination of interstitial collagen volume fraction and morphologic abnormalities (i.e. necrosis, vascular injury).

[2] = Assay C: aldosterone infusion study, radiotelemetrized arterial blood pressure; details: 30-day protocol; uninephrectomized Sprague-Dawley rats, aldosterone + salt alone or with eplerenone 100 mg/kg/day
Protocol: (§1) The procedure of Assay B was expanded upon in a further study. […] Myocardial tissue from animals in each treatment group was examined after 7, 14, or 30 days of treatment. […] Lesions were preceded by the expression and progressive upregulation of proinflammatory molecules.
Male Sprague-Dawley rats, weighing 230 to 250 g, (Harlan Sprague-Dawley Industries, Indianapolis, Ind.) were housed in a room 12-hours light/12-hours dark daily cycle at an ambient temperature of 22±1° C. (n=96). Animals were allowed one week to adjust after arrival and had free access to TEKLAD 22/5 rodent diet (Harlan TEKLAD, Madison, Wis.) and tap water until the initiation of the experiment.
(§2) Potassium chloride supplementation was added to the saline solution in order to prevent the potential hypokalemia associated with aldosterone excess.
Treatment At the time of the surgery, an Alzet 2002 osmotic minipump (Alza Corp., Palo Alto, Calif.) containing either vehicle (9% ethanol/87% propylene glycol/4% dH2O) or 1.0 mg/mL d-aldosterone (Sigma Chemical, St. Louis, Mo.) was inserted subcutaneously at the nape of the neck. […]
Animals to be sacrificed after 7 or 14 days of treatment were uninephrectomized and implanted with an Alzet minipump. […] Animals were monitored daily for signs of distress and infection at the surgical site. […]
Radiotelemetrized arterial blood pressure was calculated with the […]

[3] = system: Osteopontin, ED-1, CD-3, ICAM-1, VCAM-1; test: Assay C: immunohistochemistry of myocardial tissue; details: aldosterone+salt alone or with eplerenone 100 mg/kg/day
Protocol: as §1, §2
Treatment At the time of the surgery, an Alzet 2002 osmotic minipump (Alza Corp., Palo Alto, Calif.) containing either vehicle (9% ethanol/87% propylene glycol/4% dH2O) or 1.0 mg/mL d-aldosterone (Sigma Chemical, St. Louis, Mo.) was inserted subcutaneously at the nape of the neck. Aldosterone was administered at a dose of 0.75 µg/hour. […] Animals were sacrificed from each group (n=8-13) after 7, 14, or 30 days of treatment.
Five μm sections were deparaffinized in xylene (two, 5-10 min incubations) and rehydrated by 3 min incubations in ethanol as follows: two incubations in 100% ethanol followed by two incubations in 95% alcohol and one incubation in 70% alcohol. Once hydrated, sections were rinsed in tap water for 1 min and distilled water for 1 min. Endogenous peroxide activity was blocked by placing slides in 3.0% H2O2 for 15 min followed by a 5 min rinse in distilled water. Slides were processed for antigen retrieval using citric acid, pH6.0. […]

Compound	Vascular inflammatory lesions / myocardial injury (hematoxylin-eosin) [1]	Systolic blood pressure (radiotelemetry) [2]	Immunohistochemical staining of marker proteins in myocardial tissue [3]
C[C@]12CCC(=O)C=C1CC[C@@H]1[C@@H]2[C@@H](O)C[C@]2(C=O)[C@@H](C(=O)CO)CC[C@@H]12 [aldosterone]	severe vascular inflammatory lesions	induced severe hypertension; also recorded: induced a progressive increase in blood pressure with time	Significant expression of osteopontin
COC(=O)[C@@H]1CC2=CC(=O)CC[C@]2(C)[C@@]23O[C@@H]2C[C@@]2(C)[C@@H](CC[C@@]24CCC(=O)O4)[C@H]13 [eplerenone]	completely prevented the vascular inflammatory changes; also recorded: prevention by eplerenone of myocardial injury	significantly reduced at days 8-30; also recorded: remained elevated compared to vehicle+salt controls	markedly blunted
